Source: PubChem BioAssay AID330 (DTP/NCI, 2004)
“And” between values parts separate entries of the source, which are not always exact repeats. Equal entries are not always repeated. Toxic doses and inconclusive results are not listed.

Test system: P388 leukemia ip, CD2F1 mice, survival T/C
Experiment: NCI In Vivo Anticancer Drug Screen. Data for tumor model P388 Leukemia (intraperitoneal) in CD2F1 (CDF1) mice
Conditions: endpoint: median survival time, higher = longer survival
Method in brief: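 Mice carrying the transplanted tumor received test compound or vehicle. Survival was recorded in each group, and the value is the treated-group measurement divided by that of the vehicle-treated control group.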

[1] = dose: 50.0 mg/kg/injection, schedule: Q01DX005 (ip), vehicle: Klucel (hydroxypropylcellulose) (HPC)
[2] = dose: 100.0 mg/kg/injection, schedule: Q01DX005 (ip), vehicle: Klucel (hydroxypropylcellulose) (HPC)
[3] = dose: 200.0 mg/kg/injection, schedule: Q01DX005 (ip), vehicle: Klucel (hydroxypropylcellulose) (HPC)
[4] = dose: 50.0 mg/kg/injection, schedule: Q01DX009 (ip), vehicle: saline with Tween-80
[5] = dose: 100.0 mg/kg/injection, schedule: Q01DX009 (ip), vehicle: saline with Tween-80
[6] = dose: 200.0 mg/kg/injection, schedule: Q01DX009 (ip), vehicle: saline with Tween-80

## COC(=O)C1(CC(=O)c2cccc([N+](=O)[O-])c2)NC(=S)NC(=O)C1C#N (configuration not stated)
dose: 60.0 mg/kg/injection, schedule: Q01DX005 (ip), vehicle: suspension in saline
  T/C: 100 % of control
dose: 120.0 mg/kg/injection, schedule: Q01DX005 (ip), vehicle: suspension in saline
  T/C: 90 % of control
dose: 240.0 mg/kg/injection, schedule: Q01DX005 (ip), vehicle: suspension in saline
  T/C: 90 % of control

## N#Cc1c(-c2ccccc2)cn2c1[nH]c(=O)c1c3c(sc12)CCCC3
dose: 60.0 mg/kg/injection, schedule: Q01DX005 (ip), vehicle: saline with Tween-80
  T/C: 88 % of control and 89 % of control
dose: 120.0 mg/kg/injection, schedule: Q01DX005 (ip), vehicle: saline with Tween-80
  T/C: 87 % of control
dose: 240.0 mg/kg/injection, schedule: Q01DX005 (ip), vehicle: saline with Tween-80
  T/C: 86 % of control and 87 % of control

## [Cl][Pt+2][Cl].[NH-]C1CCCC1[NH-] (configuration not stated)
dose: 3.13 mg/kg/injection, schedule: Q04DX002 (ip), vehicle: saline with Tween-80
  T/C: 158 % of control
dose: 6.25 mg/kg/injection, schedule: Q04DX002 (ip), vehicle: saline with Tween-80
  T/C: 198 % of control and 190 % of control and 171 % of control
dose: 12.5 mg/kg/injection, schedule: Q04DX002 (ip), vehicle: saline with Tween-80
  T/C: 210 % of control and 197 % of control and 222 % of control
dose: 25.0 mg/kg/injection, schedule: Q04DX002 (ip), vehicle: saline with Tween-80
  T/C: 235 % of control and 112 % of control

## COc1cccc(C2NC(c3cccc(OC)c3)C3CCCC2C3=O)c1 (configuration not stated)
dose: 25.0 mg/kg/injection, schedule: Q01DX005 (ip), vehicle: Klucel (hydroxypropylcellulose) (HPC)
  T/C: 103 % of control
[1]
  T/C: 102 % of control
[2]
  T/C: 106 % of control
[3]
  T/C: 102 % of control

## C=C/C=C/NC(=O)OCc1ccccc1
[4]
  T/C: 100 % of control
[5]
  T/C: 105 % of control
[6]
  T/C: 102 % of control

## COc1cc(Cc2cnc(N)nc2N)cc(OC)c1OC
dose: 50.0 mg/kg/injection, schedule: Q01DX005 (ip), vehicle: saline with Tween-80
  T/C: 100 % of control
dose: 100.0 mg/kg/injection, schedule: Q01DX005 (ip), vehicle: saline with Tween-80
  T/C: 99 % of control
dose: 200.0 mg/kg/injection, schedule: Q01DX005 (ip), vehicle: saline with Tween-80
  T/C: 100 % of control
dose: 400.0 mg/kg/injection, schedule: Q01DX005 (ip), vehicle: saline with Tween-80
  T/C: 100 % of control

## NC1=NN(S(=O)(=O)c2ccc(Br)cc2)CC1
[1]
  T/C: 89 % of control
[2]
  T/C: 94 % of control
[3]
  T/C: 89 % of control

## NC(=S)N/N=C/c1ccc(OC(=O)COc2ccc(Cl)cc2)cn1
dose: 3.12 mg/kg/injection, schedule: Q01DX009 (ip), vehicle: saline with Tween-80
  T/C: 118 % of control
dose: 6.25 mg/kg/injection, schedule: Q01DX009 (ip), vehicle: saline with Tween-80
  T/C: 159 % of control
dose: 12.5 mg/kg/injection, schedule: Q01DX009 (ip), vehicle: saline with Tween-80
  T/C: 156 % of control and 157 % of control
dose: 25.0 mg/kg/injection, schedule: Q01DX009 (ip), vehicle: saline with Tween-80
  T/C: 184 % of control
[4]
  T/C: 188 % of control and 189 % of control
[5]
  T/C: 225 % of control and 88 % of control
[6]
  T/C: 86 % of control

## COC1C(c2cc(C(N)=O)n(-c3ccc([N+](=O)[O-])cc3)n2)OC2OC(C)(C)OC21 (configuration not stated)
dose: 100.0 mg/kg/injection, schedule: Q01DX001 (ip), vehicle: saline with Tween-80
  T/C: 100 % of control
dose: 200.0 mg/kg/injection, schedule: Q01DX001 (ip), vehicle: saline with Tween-80
  T/C: 96 % of control
dose: 400.0 mg/kg/injection, schedule: Q01DX001 (ip), vehicle: saline with Tween-80
  T/C: 94 % of control

## c1ccc(Nc2nnc(-c3ccc4c(c3)OCO4)o2)cc1
[1]
  T/C: 91 % of control
[2]
  T/C: 92 % of control
[3]
  T/C: 100 % of control

## CCCCCCCCCCCCCCCCCCCC[N+]1([O-])CCOCC1
dose: 3.12 mg/kg/injection, schedule: Q01DX009 (ip), vehicle: saline
  T/C: 101 % of control
dose: 6.25 mg/kg/injection, schedule: Q01DX009 (ip), vehicle: saline
  T/C: 87 % of control
dose: 12.5 mg/kg/injection, schedule: Q01DX009 (ip), vehicle: saline
  T/C: 87 % of control and 94 % of control
dose: 25.0 mg/kg/injection, schedule: Q01DX009 (ip), vehicle: saline
  T/C: 94 % of control
dose: 50.0 mg/kg/injection, schedule: Q01DX009 (ip), vehicle: saline
  T/C: 90 % of control and 92 % of control
